Blank lines part the entries; values can stand above or below the compound they belong to.
Key:
[1] = biological target: T1, Indoleamine 2,3-dioxygenase 1 (Homo sapiens, UniProt P14902); test: Inhibition of IDO1 (unknown origin) assessed as reduction in kynurenine formation using L-tryptophan as substrate by methylene blue reagent based assay
Target sequence in this assay (P14902 whole entry): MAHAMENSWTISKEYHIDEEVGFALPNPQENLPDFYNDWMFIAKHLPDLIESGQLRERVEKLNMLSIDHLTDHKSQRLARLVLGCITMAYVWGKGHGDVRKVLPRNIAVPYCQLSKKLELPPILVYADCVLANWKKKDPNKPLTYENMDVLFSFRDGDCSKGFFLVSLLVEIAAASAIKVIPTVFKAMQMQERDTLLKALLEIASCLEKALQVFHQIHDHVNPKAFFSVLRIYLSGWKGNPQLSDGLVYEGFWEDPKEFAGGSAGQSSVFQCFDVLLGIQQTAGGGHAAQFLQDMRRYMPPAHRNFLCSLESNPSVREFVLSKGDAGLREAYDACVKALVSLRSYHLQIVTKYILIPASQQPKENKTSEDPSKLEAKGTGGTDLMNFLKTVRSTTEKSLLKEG

[2] = biological target: T2, Indoleamine 2,3-dioxygenase 2 (Homo sapiens, UniProt Q6ZQW0); test: Inhibition of IDO2 (unknown origin) assessed as reduction in kynurenine formation using L-tryptophan as substrate by methylene blue reagent based assay
T2 sequence (Q6ZQW0 whole entry): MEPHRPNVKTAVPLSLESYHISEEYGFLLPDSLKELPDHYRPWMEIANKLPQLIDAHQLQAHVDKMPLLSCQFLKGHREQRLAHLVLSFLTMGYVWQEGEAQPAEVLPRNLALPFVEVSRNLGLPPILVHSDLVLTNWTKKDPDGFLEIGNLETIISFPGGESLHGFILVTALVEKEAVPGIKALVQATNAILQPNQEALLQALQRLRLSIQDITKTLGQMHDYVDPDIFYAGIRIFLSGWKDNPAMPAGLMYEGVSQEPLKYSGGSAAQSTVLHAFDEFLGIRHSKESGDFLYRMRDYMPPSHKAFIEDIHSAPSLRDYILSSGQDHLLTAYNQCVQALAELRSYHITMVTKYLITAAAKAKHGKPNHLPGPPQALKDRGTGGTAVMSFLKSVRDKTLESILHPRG

[3] = biological target: T1, Indoleamine 2,3-dioxygenase 1; test: Inhibition of IDO1 (unknown origin) assessed as reduction in kynurenine formation using L-tryptophan as substrate by methylene blue reagent based assay relative to control; design: concentration or dose not given beside the values; details: concentration not given here
Target sequence in this assay (P14902 whole entry, looked up): as the sequence (P14902 whole entry) above

[4] = biological target: T3, Indoleamine 2,3-dioxygenase 2 (Homo sapiens) (UniProt Q6ZQW0); test: Inhibition of IDO2 (unknown origin) assessed as reduction in kynurenine formation using L-tryptophan as substrate by methylene blue reagent based assay relative to control; design: concentration or dose not given beside the values; details: concentration not given here
T3 sequence (whole entry): T2 sequence (Q6ZQW0 whole entry)

[5] = Inhibition of IDO1/IDO2 in IFNgamma/LPS-stimulated human PBMCs assessed as reduction in kynurenine formation pretreated with compound for 15 mins followed by IFNgamma/LPS stimulation by LC-MS/MS analysis; type: tissue-based; details: PBMC

Compound: CCC(O)c1cn(CCNc2nonc2/C(=N/O)Nc2ccc(F)c(Br)c2)nn1 (stereo unspecified)
IC50 [1]: 0.073 µM | IC50 [2]: 0.947 µM

Compound: CC(C)(O)c1cn(CCNc2nonc2/C(=N/O)Nc2ccc(F)c(Br)c2)nn1
IC50 [1]: 0.115 µM | IC50 [2]: 0.726 µM

Compound: CCOC(=O)N1CCC2(CC1)C[C@H](NC(=O)c1cccc3cn[nH]c13)c1cc(Br)ccc1O2
IC50 [5]: 0.0054 µM

Other lines, results leading:

IC50 [1]: 0.127 µM | IC50 [2]: 0.83 µM
Compound: CCCCc1cn(CCNc2nonc2/C(=N/O)Nc2ccc(F)c(Br)c2)nn1

inhibition [3]: 12% | inhibition [4]: 14%
Compound: Cc1ccc(-c2cn(CCNc3nonc3/C(=N/O)Nc3ccc(F)c(Br)c3)nn2)cc1

IC50 [1]: 0.051 µM | IC50 [2]: 0.689 µM
Compound: CC(C)CC(C)(O)c1cn(CCNc2nonc2/C(=N/O)Nc2ccc(F)c(Br)c2)nn1 (stereo unspecified)

Source: ChEMBL document CHEMBL5055685, “Discovery of the First Potent IDO1/IDO2 Dual Inhibitors: A Promising Strategy for Cancer Immunotherapy” (J Med Chem, 2021)
